US10961202B2, “Bis-benzimidazole compounds and methods of using the same” (THE SCRIPPS RESEARCH INSTITUTE, priority 2017, dated 2021)

What was measured:
r(CUG)12-MBNL1 complex = assay: Inhibition of the r(CUG)12-MBNL1 complex measured by TR-FRET; type: biochemical; details: 80 nM RNA, 60 nM MBNL1-His6
[1] = tested on: MBNL1 exon 5 inclusion in DM1 myotubes; assay: Myotube splicing rescue assay (MBNL1 exon 5 inclusion); type: cell-based, human; details: 48-hour incubation

SMILES	IC50 (r(CUG)12-MBNL1 complex; Table M) [µM]	further results
CN(C)CCNC(=O)c1ccc2nc(-c3ccc(-c4nc5ccc(C(=O)NCCN(C)C)cc5[nH]4)cc3)[nH]c2c1 [Compound 16, 2,2′-(1,4-phenylene)bis(N-(2-(dimethylamino)ethyl)-1H-benzo[d]imidazole-6-carboxamide)]	–	IC50 (r(CUG)12-MBNL1 complex; Table L): 6.2 µM; MBNL1 % splicing rescue at 10 μM [1]: −4.3%
CCN(CC)CCNC(=O)c1ccc2nc(-c3ccc(-c4nc5ccc(C(=O)NCCN(CC)CC)cc5[nH]4)cc3)[nH]c2c1 [Compound 33]	–	IC50 (r(CUG)12-MBNL1 complex; Table L): 8.1 µM; MBNL1 % splicing rescue at 10 μM [1]: 16.4%
CC(C)N(CCNC(=O)c1ccc2nc(-c3ccc(-c4nc5ccc(C(=O)NCCN(C(C)C)C(C)C)cc5[nH]4)cc3)[nH]c2c1)C(C)C [Compound 34]	–	IC50 (r(CUG)12-MBNL1 complex; Table L): 14.5 µM; MBNL1 % splicing rescue at 1 μM [1]: 20.8%
N=C(N)NCCNC(=O)c1ccc2nc(-c3ccc(-c4nc5ccc(C(=O)NCCNC(=N)N)cc5[nH]4)cc3)[nH]c2c1 [Compound 38]	–	IC50 (r(CUG)12-MBNL1 complex; Table L): 2.6 µM; MBNL1 % splicing rescue at 10 μM [1]: 0.0%
O=C(NCCN1CCCCC1)c1ccc2nc(-c3ccc(-c4nc5ccc(C(=O)NCCN6CCCCC6)cc5[nH]4)cc3)[nH]c2c1 [Compound 41, 2,2′-(1,4-phenylene)bis(N-(2-(piperidin-1-yl)ethyl)-1H-benzo[d]imidazole-6-carboxamide)]	–	IC50 (r(CUG)12-MBNL1 complex; Table L): 6.6 µM; MBNL1 % splicing rescue at 1 μM [1]: 43.7%; MBNL1 % splicing rescue at 10 μM [1]: 59.1%
CN1CCN(CCNC(=O)c2ccc3nc(-c4ccc(-c5nc6ccc(C(=O)NCCN7CCCCC7)cc6[nH]5)cc4)[nH]c3c2)CC1 [Compound 44, N-(2-(4-methylpiperazin-1-yl)ethyl)-2-(4-(6-((2-(piperidin-1-yl)ethyl)carbamoyl)-1H-benzo[d]imidazol-2-yl)phenyl)-1H-benzo[d]imidazole-6-carboxamide]	–	IC50 (r(CUG)12-MBNL1 complex; Table L): 11.9 µM; MBNL1 % splicing rescue at 1 μM [1]: 6.1%; MBNL1 % splicing rescue at 10 μM [1]: 16.4%
CN(CC(=O)NCCN1CCN(CCNC(=O)c2ccc3nc(-c4ccc(-c5nc6ccc(C(=O)NCCN7CCCCC7)cc6[nH]5)cc4)[nH]c3c2)CC1)CC(=O)NCCN1CCN(CCNC(=O)c2ccc3nc(-c4ccc(-c5nc6ccc(C(=O)NCCN7CCCCC7)cc6[nH]5)cc4)[nH]c3c2)CC1 [Compound 405]	–	MBNL1 % splicing rescue at 10 μM [1]: −2.5%
CN(C)CCNC(=O)c1ccc(-c2nc3ccc(-c4ccc5nc(-c6ccc(C(=O)N(C)CCCc7cn(CCCNCC(=O)N8CCC[C@H]8C(=O)N8CCC[C@H]8C(=O)N8CCC[C@H]8C(=O)N8CCC[C@H]8C(=O)N(CCCn8cc(CCCN(C)C(=O)c9ccc(-c%10nc%11ccc(-c%12ccc%13nc(-c%14ccc(C(=O)NCCN(C)C)cc%14)[nH]c%13c%12)cc%11[nH]%10)cc9)nn8)CC(N)=O)nn7)cc6)[nH]c5c4)cc3[nH]2)cc1 [Compound 435]	13.3	–
CN(C)CCNC(=O)c1ccc(-c2nc3ccc(-c4ccc5nc(-c6ccc(C(=O)Nc7cccc(-c8cn(CCCNCC(=O)N9CCC[C@H]9C(=O)N9CCC[C@H]9C(=O)N9CCCC9C(=O)N9CCC[C@H]9C(=O)N(CCCn9cc(-c%10cccc(NC(=O)c%11ccc(-c%12nc%13ccc(-c%14ccc%15nc(-c%16ccc(C(=O)NCCN(C)C)cc%16)[nH]c%15c%14)cc%13[nH]%12)cc%11)c%10)nn9)CC(N)=O)nn8)c7)cc6)[nH]c5c4)cc3[nH]2)cc1 (stereo partly shown) [Compound 436]	2.6	–
CN(C)CCNC(=O)c1ccc(-c2nc3ccc(-c4ccc5nc(-c6ccc(C(=O)NCCOCCOCc7cn(CCCNCC(=O)N8CCCC8C(=O)N8CCC[C@H]8C(=O)N(CCCn8cc(COCCOCCNC(=O)c9ccc(-c%10nc%11ccc(-c%12ccc%13nc(-c%14ccc(C(=O)NCCN(C)C)cc%14)[nH]c%13c%12)cc%11[nH]%10)cc9)nn8)CC(N)=O)nn7)cc6)[nH]c5c4)cc3[nH]2)cc1 (stereo partly shown) [Compound 437]	7.5	–
CN(C)CCNC(=O)c1ccc(-c2nc3ccc(-c4ccc5nc(-c6ccc(C(=O)NCCOCCOCCOCCOCc7cn(CCCNCC(=O)N8CCCC8C(=O)N8CCC[C@H]8C(=O)N(CCCn8cc(COCCOCCOCCOCCNC(=O)c9ccc(-c%10nc%11ccc(-c%12ccc%13nc(-c%14ccc(C(=O)NCCN(C)C)cc%14)[nH]c%13c%12)cc%11[nH]%10)cc9)nn8)CC(N)=O)nn7)cc6)[nH]c5c4)cc3[nH]2)cc1 (stereo partly shown) [Compound 438]	> 200	–
C[C@H](CNC(=O)c1ccc(-c2nc3ccc(-c4ccc5nc(-c6ccc(C(=O)NCCN(C)C)cc6)[nH]c5c4)cc3[nH]2)cc1)NC(=O)c1ccc(-c2nc3ccc(-c4ccc5nc(-c6ccc(C(=O)NCCN(C)C)cc6)[nH]c5c4)cc3[nH]2)cc1 [Compound 441]	66	–
CN(C)CCNC(=O)c1ccc(-c2nc3ccc(-c4ccc5nc(-c6ccc(C(=O)Nc7cccc(-c8cn(CCCNCC(=O)N9CCCC9C(=O)N9CCC[C@H]9C(=O)N(CCCn9cc(-c%10cccc(NC(=O)c%11ccc(-c%12nc%13ccc(-c%14ccc%15nc(-c%16ccc(C(=O)NCCN(C)C)cc%16)[nH]c%15c%14)cc%13[nH]%12)cc%11)c%10)nn9)CC(N)=O)nn8)c7)cc6)[nH]c5c4)cc3[nH]2)cc1 (stereo partly shown) [Compound 446]	7.1	–
C[C@@H](NC(=O)CN(CCN)C(=O)c1ccc(-c2nc3cc(-c4ccc5[nH]c(-c6ccc(OCCCN(C)C)cc6)nc5c4)ccc3[nH]2)cc1)C(=O)N[C@H](C)C(=O)N[C@H](C)C(=O)N[C@H](C)C(=O)N(CCNC(=O)c1ccc(-c2nc3cc(-c4ccc5[nH]c(-c6ccc(OCCCN(C)C)cc6)nc5c4)ccc3[nH]2)cc1)CC(N)=O [Compound 447]	22.6	–
C[C@@H](NC(=O)CNCCNC(=O)c1ccc(-c2nc3cc(-c4ccc5[nH]c(-c6ccc(OCCCN(C)C)cc6)nc5c4)ccc3[nH]2)cc1)C(=O)N[C@H](C)C(=O)N[C@H](C)C(=O)N[C@H](C)C(=O)N(CCNC(=O)c1ccc(-c2nc3cc(-c4ccc5[nH]c(-c6ccc(OCCCN(C)C)cc6)nc5c4)ccc3[nH]2)cc1)CC(N)=O [Compound 448]	3.5	–
CN(C)CCNC(=O)c1ccc(-c2nc3ccc(-c4ccc5nc(-c6ccc(C(=O)N(C)CCCN(C)CCCN(C)C(=O)c7ccc(-c8nc9ccc(-c%10ccc%11nc(-c%12ccc(C(=O)NCCN(C)C)cc%12)[nH]c%11c%10)cc9[nH]8)cc7)cc6)[nH]c5c4)cc3[nH]2)cc1 [Compound 449]	2.5	–
CN(C)CCCN(CCCNC(=O)c1ccc(-c2nc3ccc(-c4ccc5nc(-c6ccc(C(=O)NCCN(C)C)cc6)[nH]c5c4)cc3[nH]2)cc1)C(=O)c1ccc(-c2nc3ccc(-c4ccc5nc(-c6ccc(C(=O)NCCN(C)C)cc6)[nH]c5c4)cc3[nH]2)cc1 [Compound 450]	29.2	–
CN(C)CCNC(=O)c1ccc(-c2nc3ccc(-c4ccc5nc(-c6ccc(C(=O)NCCCN(C)CCCNC(=O)c7ccc(-c8nc9ccc(-c%10ccc%11nc(-c%12ccc(C(=O)NCCN(C)C)cc%12)[nH]c%11c%10)cc9[nH]8)cc7)cc6)[nH]c5c4)cc3[nH]2)cc1 [Compound 451]	14	–
CN(C)CCCOc1ccc(-c2nc3cc(-c4ccc5[nH]c(-c6ccc(C(=O)NCCCn7cc(-c8cccc(NC(=O)c9ccc(-c%10nc%11cc(-c%12ccc%13[nH]c(-c%14ccc(C(=O)NCCN(C)C)cc%14)nc%13c%12)ccc%11[nH]%10)cc9)c8)nn7)cc6)nc5c4)ccc3[nH]2)cc1 [Compound 456]	45.1	–
CN(C)CCCOc1ccc(-c2nc3cc(-c4ccc5[nH]c(-c6ccc(C(=O)NCCCn7cc(CCCNC(=O)c8ccc(C9=Nc%10cc(-c%11ccc%12[nH]c(-c%13ccc(C(=O)NCCN(C)C)cc%13)nc%12c%11)ccc%10C9)cc8)nn7)cc6)nc5c4)ccc3[nH]2)cc1 [Compound 457]	> 200	–
CN(C)CCNC(=O)c1ccc2nc(-c3ccc4cc(-c5nc6ccc(C(=O)NCCN(C)C)cc6[nH]5)ccc4c3)[nH]c2c1 [Compound 462]	–	MBNL1 % splicing rescue at 10 μM [1]: −2.7%
CC(C(=O)N(C)C(C)C(=O)N(C)C(C)C(=O)N(C)C(C)C(=O)N(CCCn1cc(CCCCN(C)CCOc2ccc(-c3nc4cc(-c5ccc6[nH]c(-c7ccc(OCCN(C)C)cc7)nc6c5)ccc4[nH]3)cc2)nn1)CC(N)=O)N(C)C(=O)CNCCCn1cc(CCCCN(C)CCOc2ccc(-c3nc4cc(-c5ccc6[nH]c(-c7ccc(OCCN(C)C)cc7)nc6c5)ccc4[nH]3)cc2)nn1 (stereo not shown) [compound 164]	1.91	–

Second part, led by results:

IC50 (r(CUG)12-MBNL1 complex; Table M) [µM]	SMILES	further results
10.9	CN(C)CCNC(=O)c1ccc(-c2nc3ccc(-c4ccc5nc(-c6ccc(C(=O)N7CCC(C8CCN(C(=O)c9ccc(-c%10nc%11ccc(-c%12ccc%13nc(-c%14ccc(C(=O)NCCN(C)C)cc%14)[nH]c%13c%12)cc%11[nH]%10)cc9)CC8)CC7)cc6)[nH]c5c4)cc3[nH]2)cc1 [Compound 439]	–
1.2	CN(C)CCNC(=O)c1ccc(-c2nc3ccc(-c4ccc5nc(-c6ccc(C(=O)NCC7CCCCN7C(=O)c7ccc(-c8nc9ccc(-c%10ccc%11nc(-c%12ccc(C(=O)NCCN(C)C)cc%12)[nH]c%11c%10)cc9[nH]8)cc7)cc6)[nH]c5c4)cc3[nH]2)cc1 (stereo not shown) [Compound 440]	–
6.7	C[C@@H](CNC(=O)c1ccc(-c2nc3ccc(-c4ccc5nc(-c6ccc(C(=O)NCCN(C)C)cc6)[nH]c5c4)cc3[nH]2)cc1)NC(=O)c1ccc(-c2nc3ccc(-c4ccc5nc(-c6ccc(C(=O)NCCN(C)C)cc6)[nH]c5c4)cc3[nH]2)cc1 [Compound 442]	–
3.1	CN(C)CCNC(=O)c1ccc(-c2nc3ccc(-c4ccc5nc(-c6ccc(C(=O)N7CCCC8C9CCCN(C(=O)c%10ccc(-c%11nc%12ccc(-c%13ccc%14nc(-c%15ccc(C(=O)NCCN(C)C)cc%15)[nH]c%14c%13)cc%12[nH]%11)cc%10)C9CCC87)cc6)[nH]c5c4)cc3[nH]2)cc1 (stereo not shown) [Compound 452]	–
6.2	CN(C)CCNC(=O)c1ccc(-c2nc3ccc(-c4ccc5nc(-c6ccc(C(=O)NC[C@H]7CCCN7C(=O)c7ccc(-c8nc9ccc(-c%10ccc%11nc(-c%12ccc(C(=O)NCCN(C)C)cc%12)[nH]c%11c%10)cc9[nH]8)cc7)cc6)[nH]c5c4)cc3[nH]2)cc1 [Compound 453]	–
3.4	CN(C)CCNC(=O)c1ccc(-c2nc3ccc(-c4ccc5nc(-c6ccc(C(=O)N[C@@H]7CCN(C(=O)c8ccc(-c9nc%10ccc(-c%11ccc%12nc(-c%13ccc(C(=O)NCCN(C)C)cc%13)[nH]c%12c%11)cc%10[nH]9)cc8)C7)cc6)[nH]c5c4)cc3[nH]2)cc1 [Compound 454]	–
3.8	CN(C)CCNC(=O)c1ccc(-c2nc3ccc(-c4ccc5nc(-c6ccc(C(=O)N[C@H]7CCN(C(=O)c8ccc(-c9nc%10ccc(-c%11ccc%12nc(-c%13ccc(C(=O)NCCN(C)C)cc%13)[nH]c%12c%11)cc%10[nH]9)cc8)C7)cc6)[nH]c5c4)cc3[nH]2)cc1 [Compound 455]	–
